Target: HDM2 protein (Homo sapiens, UniProt Q00987)
Assay: fluorescence polarization screening assay (FP IC50)
Format: binding
Method: The compounds were evaluated to determine activity at the HDM2 protein by known methods such as the fluorescence polarization screening assay that measures the inhibitory concentration that achieves 50% of maximal activity (FP IC50) and the dissociation constant for inhibitor binding (FP Ki). [Zhang et al., J. Analytical Biochemistry 331: 138-146 (2004)].

HDM2 protein, sequence (Q00987 whole entry): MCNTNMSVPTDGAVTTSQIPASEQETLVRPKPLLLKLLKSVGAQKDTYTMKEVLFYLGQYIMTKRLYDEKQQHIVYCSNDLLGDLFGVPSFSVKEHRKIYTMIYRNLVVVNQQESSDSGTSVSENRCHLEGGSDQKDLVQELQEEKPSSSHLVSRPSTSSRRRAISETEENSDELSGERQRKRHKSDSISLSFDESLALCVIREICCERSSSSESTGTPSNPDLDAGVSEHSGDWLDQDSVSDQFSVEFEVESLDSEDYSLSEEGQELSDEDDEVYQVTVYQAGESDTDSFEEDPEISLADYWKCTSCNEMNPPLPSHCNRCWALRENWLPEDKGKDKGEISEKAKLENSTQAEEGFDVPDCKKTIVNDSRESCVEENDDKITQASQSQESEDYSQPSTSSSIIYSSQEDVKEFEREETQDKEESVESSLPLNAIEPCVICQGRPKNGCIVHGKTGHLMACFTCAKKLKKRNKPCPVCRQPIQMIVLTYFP

Compound | IC50 (class symbols) | IC50 (numeric value)
CCC[C@H]1N(C(=O)c2ncccc2C(F)(F)F)CCC[C@@]1(Oc1csc(C(F)(F)F)c1)C(=O)N1CCc2cc(Cl)ccc2C1CC(C)(C)C(=O)NS(C)(=O)=O (single isomer, unassigned) [Compound A68] | 1 to 100 nM | –
CCC[C@H]1N(C(=O)c2ncccc2C(F)(F)F)CCC[C@@]1(Oc1csc(C(F)(F)F)c1)C(=O)N1CCc2cc(Cl)ccc2C1CC(C)(C)C(=O)NS(C)(=O)=O (single isomer, unassigned) [Compound A69] | 1 to 100 nM | –
CCC[C@H]1N(C(=O)c2ncccc2C(F)(F)F)CCC[C@@]1(Oc1csc(C(F)(F)F)c1)C(=O)N1Cc2cc(F)ccc2CC1C(=O)O (stereo in doubt) [Compound A126, (3S)-7-fluoro-2-{[(2R,3S)-2-propyl-1-{[3-(trifluoromethyl)pyridin-2-yl]carbonyl}-3-{[5-(trifluoromethyl)thiophen-3-yl]oxy}piperidin-3-yl]carbonyl}-1,2,3,4-tetrahydroisoquinoline-3-carboxylic acid] | 1 to 100 nM | –
COCCN(CCOC)CC[C@H]1N(C(=O)c2cnccc2C(F)(F)F)CCC[C@@]1(Oc1csc(C(F)(F)F)c1)C(=O)N1CCc2ccc(Cl)cc2C1 [Compound A1, 2-[(2R,3S)-3-[(7-chloro-3,4-dihydroisoquinblin-2(1H)-yl)carbonyl]-1-{[4-(trifluoromethyl)byridin-3-yl]carbonyl}-3-{[5-(trifluoromethyl)thiophen-3-yl]oxy}piperidin-2-yl]-N,N-bis(2-methoxyethyl)ethanamine] | – | 472000 nM
COCCN(CCOC)CC[C@H]1N(C(=O)c2cnccc2C(F)(F)F)CCC[C@@]1(Oc1csc(C(F)(F)F)c1)C(=O)N1CCc2cc(Cl)ccc2C1 [Compound A2, 2-[(2R,3S)-3-[(6-chloro-3,4-dihydroisoquinblin-2(1H)-yl)carbonyl]-1-{[4-(trifluoromethyl)byridin-3-yl]carbonyl}-3-{[5-(trifluoromethyl)thiophen-3-yl]oxy}piperidin-2-yl]-N,N-bis(2-methoxyethyl)ethanamine] | 1 to 100 nM | –
O=C(c1cnccc1C(F)(F)F)N1CCC[C@@](Oc2csc(C(F)(F)F)c2)(C(=O)N2CCc3ccc(Cl)cc3C2)[C@H]1CCN1CCOCC1 [Compound A3, 7-chloro-2-{[(2R,3S)-2-(2-morpholin-4-ylethyl)-1-{[4-(trifluoromethyl)pyridin-3-yl]carbonyl}-3-{[5-(trifluoromethyl)thiophen-3-yl]oxy}piperidin-3-yl]carbonyl}-1,2,3,4-tetrahydroisoquinoline] | 101 to 20000 nM | –
O=C(c1cnccc1C(F)(F)F)N1CCC[C@@](Oc2csc(C(F)(F)F)c2)(C(=O)N2CCc3cc(Cl)ccc3C2)[C@H]1CCN1CCOCC1 [Compound A4, 6-chloro-2-{[(2R,3S)-2-(2-morpholin-4-ylethyl)-1-{[4-(trifluoromethyl)pyridin-3-yl]carbonyl}-3-{[5-(trifluoromethyl)thiophen-3-yl]oxy}piperidin-3-yl]carbonyl}-1,2,3,4-tetrahydroisoquinoline] | 1 to 100 nM | –
CCC[C@H]1N(C(=O)c2ncccc2C(F)(F)F)CCC[C@@]1(Oc1csc(C(F)(F)F)c1)C(=O)N1CCc2ccc(C#N)cc2C1 [Compound A5, 2-{[(2R,3S)-2-propyl-1-{[3-(trifluoromethyl)pyridin-2-yl]carbonyl}-3-{[5-(trifluoromethyl)thiophen-3-yl]oxy}piperidin-3-yl]carbonyl}-1,2,3,4-tetrahydroisoquinoline-7-carbonitrile] | 101 to 20000 nM | –
CCC[C@H]1N(C(=O)c2ncccc2C(F)(F)F)CCC[C@@]1(Oc1csc(C(F)(F)F)c1)C(=O)N1CCc2ccc(C(N)=O)cc2C1 [Compound A6, 2-{[(2R,3S)-2-propyl-1-{[3-(trifluoromethyl)pyridin-2-yl]carbonyl}-3-{[5-(trifluoromethyl)thiophen-3-yl]oxy}piperidin-3-yl]carbonyl}-1,2,3,4-tetrahydroisoquinoline-7-carboxamide] | 101 to 20000 nM | –
O=C(c1ncccc1C(F)(F)F)N1CCC[C@@](Oc2csc(C(F)(F)F)c2)(C(=O)N2CCc3cc(F)ccc3C2)[C@H]1CCN1CCOCC1 [Compound A7, 6-fluoro-2-{[(2R,3S)-2-(2-morpholin-4-ylethyl)-1-{[3-(trifluoromethyl)pyridin-2-yl]carbonyl}-3-{[5-(trifluoromethyl)thiophen-3-yl]oxy}piperidin-3-yl]carbonyl}-1,2,3,4-tetrahydroisoquinoline] | 1 to 100 nM | –
CCC[C@H]1N(C(=O)c2ncccc2C(F)(F)F)CCC[C@@]1(Oc1csc(C(F)(F)F)c1)C(=O)N1CCc2sccc2C1 [Compound A8, 5-{[(2R,3S)-2-propyl-1-{[3-(trifluoromethyl)pyridin-2-yl]carbonyl}-3-{[5-(trifluoromethyl)thiophen-3-yl]oxy}piperidin-3-yl]carbonyl}-4,5,6,7-tetrahydrothieno[3,2-c]pyridine] | 101 to 20000 nM | –
CCC[C@H]1N(C(=O)c2ncccc2C(F)(F)F)CCC[C@@]1(Oc1csc(C(F)(F)F)c1)C(=O)N1CCc2sc(C(=O)OCC)cc2C1 [Compound A9, ethyl 5-{[(2R,3S)-2-propyl-1-{[3-(trifluoromethyl)pyridin-2-yl]carbonyl}-3-{[5-(trifluoromethyl)thiophen-3-yl]oxy}piperidin-3-yl]carbonyl}-4,5,6,7-tetrahydrothieno[3,2-c]pyridine-2-carboxylate] | 101 to 20000 nM | –
CCC[C@H]1N(C(=O)c2ncccc2C(F)(F)F)CCC[C@@]1(Oc1csc(C(F)(F)F)c1)C(=O)N1CCc2sc(C(=O)O)cc2C1 [Compound A10, 5-{[(2R,3S)-2-propyl-1-{[3-(trifluoromethyl)pyridin-2-yl]carbonyl}-3-{[5-(trifluoromethyl)thiophen-3-yl]oxy}piperidin-3-yl]carbonyl}-4,5,6,7-tetrahydrothieno[3,2-c]pyridine-2-carboxylic acid] | 101 to 20000 nM | –
CCC[C@H]1N(C(=O)c2ncccc2C(F)(F)F)CCC[C@@]1(Oc1csc(C(F)(F)F)c1)C(=O)N1CCc2cc(N)ccc2C1 [Compound A11, 2-{[(2R,3S)-2-propyl-1-{[3-(trifluoromethyl)pyridin-2-yl]carbonyl}-3-{[5-(trifluoromethyl)thiophen-3-yl]oxy}piperidin-3-yl]carbonyl}-1,2,3,4-tetrahydroisoquinolin-6-amine] | 101 to 20000 nM | –
CCC[C@H]1N(C(=O)c2ncccc2C(F)(F)F)CCC[C@@]1(Oc1csc(C(F)(F)F)c1)C(=O)N1CCc2cc(Cl)ccc2C1CN1CCOCC1 (stereo partly drawn) [Compound A12, 6-chloro-1-(morpholin-4-ylmethyl)-2-{[(2R,3S)-2-propyl-1-{[3-(trifluoromethyl)pyridin-2-yl]carbonyl}-3-{[5-(trifluoromethyl)thiophen-3-yl]oxy}piperidin-3-yl]carbonyl}-1,2,3,4-tetrahydroisoquinoline] | 1 to 100 nM | –
CCC[C@H]1N(C(=O)c2ncccc2C(F)(F)F)CCC[C@@]1(Oc1csc(C(F)(F)F)c1)C(=O)N1CCc2sc(Cl)cc2C1C(=O)O (stereo partly drawn) [Compound A13, 2-chloro-5-{[(2R,3S)-2-propyl-1-{[3-(trifluoromethyl)pyridin-2-yl]carbonyl}-3-{[5-(trifluoromethyl)thiophen-3-yl]oxy}piperidin-3-yl]carbonyl}-4,5,6,7-tetrahydrothieno[3,2-c]pyridine-4-carboxylic acid] | 1 to 100 nM | –
CCC[C@H]1N(C(=O)c2ncccc2C(F)(F)F)CCC[C@@]1(Oc1csc(C(F)(F)F)c1)C(=O)N1CCc2sc(Cl)cc2C1C(=O)O (stereo partly drawn) [Compound A14, 2-chloro-5-{[(2R,3S)-2-propyl-1-{[3-(trifluoromethyl)pyridin-2-yl]carbonyl}-3-{[5-(trifluoromethyl)thiophen-3-yl]oxy}piperidin-3-yl]carbonyl}-4,5,6,7-tetrahydrothieno[3,2-c]pyridine-4-carboxylic acid] | 1 to 100 nM | –
CCC[C@H]1N(C(=O)c2ncccc2C(F)(F)F)CCC[C@@]1(Oc1csc(C(F)(F)F)c1)C(=O)N1CCc2cc(Cl)ccc2C1CN1CCCC1 (stereo partly drawn) [Compound A15, 6-chloro-2-{[(2R,3S)-2-propyl-1-{[3-(trifluoromethyl)pyridin-2-yl]carbonyl}-3-{[5-(trifluoromethyl)thiophen-3-yl]oxy}piperidin-3-yl]carbonyl}-1-(pyrrolidin-1-ylmethyl)-1,2,3,4-tetrahydroisoquinoline] | 101 to 20000 nM | –
COCC1c2ccc(Cl)cc2CCN1C(=O)[C@]1(Oc2csc(C(F)(F)F)c2)CCCN(C(=O)c2ncccc2C(F)(F)F)[C@@H]1CCN1CCCC1 (stereo partly drawn) [Compound A16, 6-chloro-1-(methoxymethyl)-2-{[(2R,3S)-2-(2-pyrrolidin-1-ylethyl)-1-{[3-(trifluoromethyl)pyridin-2-yl]carbonyl}-3-{[5-(trifluoromethyl)thiophen-3-yl]oxy}piperidin-3-yl]carbonyl}-1,2,3,4-tetrahydroisoquinoline] | 1 to 100 nM | –
COCC1c2ccc(Cl)cc2CCN1C(=O)[C@]1(Oc2csc(C(F)(F)F)c2)CCCN(C(=O)c2ncccc2C(F)(F)F)[C@@H]1CCN1CCOCC1 (stereo partly drawn) [Compound A17, 6-chloro-1-(methoxymethyl)-2-{[(2R,3S)-2-(2-morpholin-4-ylethyl)-1-{[3-(trifluoromethyl)pyridin-2-yl]carbonyl}-3-{[5-(trifluoromethyl)thiophen-3-yl]oxy}piperidin-3-yl]carbonyl}-1,2,3,4-tetrahydroisoquinoline] | 1 to 100 nM | –
COCC1c2ccc(Cl)cc2CCN1C(=O)[C@]1(Oc2csc(C(F)(F)F)c2)CCCN(C(=O)c2ncccc2C(F)(F)F)[C@@H]1CC(=O)O (stereo partly drawn) [Compound A18, [(2R,3S)-3-{[6-chloro-1-(methoxymethyl)-3,4-dihydroisoquinolin-2(1H)-yl]carbonyl}-1-{[3-(trifluoromethyl)pyridin-2-yl]carbonyl}-3-{[5-(trifluoromethyl)thiophen-3-yl]oxy}piperidin-2-yl]acetic acid] | 1 to 100 nM | –
CCC[C@H]1N(C(=O)c2ncccc2C(F)(F)F)CCC[C@@]1(Oc1csc(C(F)(F)F)c1)C(=O)N1CCc2cc(Cl)sc2C1C(=O)O (stereo partly drawn) [Compound A19, 2-chloro-6-{[(2R,3S)-2-propyl-1-{[3-(trifluoromethyl)pyridin-2-yl]carbonyl}-3-{[5-(trifluoromethyl)thiophen-3-yl]oxy}piperidin-3-yl]carbonyl}-4,5,6,7-tetrahydrothieno[2,3-c]pyridine-7-carboxylic acid] | 1 to 100 nM | –

Reference: US9062071B2, “Substituted piperidines as HDM2 inhibitors” (Merck Sharp & Dohme Corp, priority 2011, dated 2015)
